In brackets after ≈: the same amount, converted by molar mass.
What was measured:
Format in all cases: functional
Cryptococcus neoformans [1] = assay: Antifungal activity against Cryptococcus neoformans 32605
Cryptococcus neoformans [2] = assay: Antifungal activity against Cryptococcus neoformans H99 incubated for 72 hrs by microbroth dilution method
Candida albicans [3] = assay: Antifungal activity against Candida albicans SC5314 incubated for 24 hrs by microbroth dilution method
Trichophyton rubrum = assay: Antifungal activity against Trichophyton rubrum cmccftla
Candida albicans [4] = assay: Antifungal activity against Candida albicans Y0109
Nakaseomyces glabratus = assay: Antifungal activity against Candida glabrata 537
Nannizzia gypsea = assay: Antifungal activity against Microsporum gypseum
Candida parapsilosis = assay: Antifungal activity against Candida parapsilosis 22019; details: Lodderomyces parapsilosis
Aspergillus fumigatus = assay: Antifungal activity against Aspergillus fumigatus 7544 incubated for 48 hrs by microbroth dilution method

MIC (Cryptococcus neoformans [2]) [µg/mL]	MIC (Candida albicans [3]) [µg/mL]	MIC (Aspergillus fumigatus) [µg/mL]	also measured	SMILES
0.0625 (≈ 0.13 µM)	0.0313 (≈ 0.0652 µM)	4 (≈ 8.33 µM)	MIC (Cryptococcus neoformans [1]): 0.0625 µg/mL (≈ 0.13 µM); MIC (Trichophyton rubrum): 0.15 µg/mL (≈ 0.312 µM); MIC (Candida albicans [4]): 0.0313 µg/mL (≈ 0.0652 µM); MIC (Nakaseomyces glabratus): 0.125 µg/mL (≈ 0.26 µM); MIC (Nannizzia gypsea): 2 µg/mL (≈ 4.16 µM); MIC (Candida parapsilosis): 0.125 µg/mL (≈ 0.26 µM)	C[C@@H](c1cn(-c2ccc(OC(F)(F)F)cc2)nn1)[C@](O)(Cn1cncn1)c1ccc(F)cc1F
0.125 (≈ 0.269 µM)		> 8		C[C@@H](c1cn(-c2ccc(Cl)cc2Cl)nn1)[C@](O)(Cn1cncn1)c1ccc(F)cc1F
0.0156 (≈ 0.0362 µM)	0.0625 (≈ 0.145 µM)	4 (≈ 9.28 µM)		C[C@@H](c1cn(-c2ccc(Cl)cc2)nn1)[C@](O)(Cn1cncn1)c1ccc(F)cc1F
0.25 (≈ 0.566 µM)		> 64		C[C@@H](c1cn(-c2ccc([N+](=O)[O-])cc2)nn1)[C@](O)(Cn1cncn1)c1ccc(F)cc1F
2 (≈ 4.85 µM)	3 (≈ 7.27 µM)	> 64		C[C@@H](c1cn(-c2ccc(O)cc2)nn1)[C@](O)(Cn1cncn1)c1ccc(F)cc1F
0.0625 (≈ 0.135 µM)	0.0625 (≈ 0.135 µM)	16 (≈ 34.5 µM)		C[C@@H](c1cn(-c2ccc(C(F)(F)F)cc2)nn1)[C@](O)(Cn1cncn1)c1ccc(F)cc1F
0.0625 (≈ 0.133 µM)	0.0156 (≈ 0.0333 µM)	2 (≈ 4.27 µM)		CCCCOc1ccc(-n2cc([C@H](C)[C@](O)(Cn3cncn3)c3ccc(F)cc3F)nn2)cc1
2 (≈ 5.03 µM)	0.25 (≈ 0.629 µM)	32 (≈ 80.5 µM)		C[C@@H](c1cn(-c2cccnc2)nn1)[C@](O)(Cn1cncn1)c1ccc(F)cc1F
0.125 (≈ 0.302 µM)	0.0625 (≈ 0.151 µM)	16 (≈ 38.6 µM)		C[C@@H](c1cn(-c2cccc(F)c2)nn1)[C@](O)(Cn1cncn1)c1ccc(F)cc1F
0.0625 (≈ 0.139 µM)	0.0625 (≈ 0.139 µM)	4 (≈ 8.91 µM)		C[C@@H](c1cn(-c2ccc(Cl)cc2F)nn1)[C@](O)(Cn1cncn1)c1cc(F)ccc1F
0.0625 (≈ 0.126 µM)	0.125 (≈ 0.252 µM)	8 (≈ 16.1 µM)		CCCCCCOc1ccc(-n2cc([C@H](C)[C@](O)(Cn3cncn3)c3ccc(F)cc3F)nn2)cc1
0.0625 (≈ 0.145 µM)	0.0625 (≈ 0.145 µM)	8 (≈ 18.5 µM)		C[C@@H](c1cn(-c2cc(F)cc(F)c2)nn1)[C@](O)(Cn1cncn1)c1ccc(F)cc1F
0.125 (≈ 0.219 µM)	1 (≈ 1.75 µM)	16 (≈ 28 µM)		C[C@@H](c1cn(-c2ccc(OCc3ccc(C(F)(F)F)cc3)cc2)nn1)[C@](O)(Cn1cncn1)c1ccc(F)cc1F
0.125 (≈ 0.289 µM)	0.125 (≈ 0.289 µM)	2 (≈ 4.63 µM)		C[C@@H](c1cn(-c2c(F)cccc2F)nn1)[C@](O)(Cn1cncn1)c1ccc(F)cc1F
0.125 (≈ 0.26 µM)	0.0625 (≈ 0.13 µM)	32 (≈ 66.6 µM)		C[C@@H](c1cn(-c2ccc(OC(F)(F)F)cc2)nn1)[C@](O)(Cn1cncn1)c1cc(F)ccc1F
0.0625 (≈ 0.116 µM)	0.5 (≈ 0.931 µM)	> 64		C[C@@H](c1cn(-c2ccc(OCc3ccc(Cl)cc3)cc2)nn1)[C@](O)(Cn1cncn1)c1ccc(F)cc1F
0.0625 (≈ 0.12 µM)	0.125 (≈ 0.24 µM)	> 64		C[C@@H](c1cn(-c2ccc(OCc3ccc(F)cc3)cc2)nn1)[C@](O)(Cn1cncn1)c1ccc(F)cc1F
0.125 (≈ 0.263 µM)	0.0625 (≈ 0.131 µM)	8 (≈ 16.8 µM)		C[C@@H](c1cn(-c2ccc(Br)cc2)nn1)[C@](O)(Cn1cncn1)c1ccc(F)cc1F
4 (≈ 10 µM)	0.5 (≈ 1.26 µM)	64 (≈ 161 µM)		C[C@@H](c1cn(-c2cncnc2)nn1)[C@](O)(Cn1cncn1)c1ccc(F)cc1F
0.0625 (≈ 0.119 µM)	0.0156 (≈ 0.0296 µM)	2 (≈ 3.8 µM)		C[C@@H](c1cn(-c2ccc(OCC(F)(F)C(F)F)cc2)nn1)[C@](O)(Cn1cncn1)c1ccc(F)cc1F
0.0625 (≈ 0.115 µM)		8 (≈ 14.7 µM)		C[C@@H](c1cn(-c2ccc(OCC(F)(F)C(F)(F)F)cc2)nn1)[C@](O)(Cn1cncn1)c1ccc(F)cc1F
